Assay results taken from patent US12152019B2, “Arylalkyl pyrazole compounds as indoleamine 2,3-dioxygenase inhibitors” (Merck Sharp & Dohme LLC, priority 2018, dated 2024).

Biological target: IDO1 (Homo sapiens, UniProt P14902)
Test: IDO1 Human Whole Blood Assay
Type: cell-based
Conditions: LPS and IFNγ 100 ng/mL, overnight (18 h), kynurenine by LC/MS/MS, read-out: Human Whole Blood Potency, IC50
Description: IDO1 Human Whole Blood Assay Compounds to be tested were serially diluted in ten 3-fold steps in DMSO starting from 10 mM. 3 μL of compound dilutions or DMSO alone were then dispensed from the dilution plate into a polypropylene 96-well assay plate containing 97 μL of RPMI using an Echo 555 acoustic liquid handler (Labcyte). LPS and IFNγ was prepared in RPMI to a 10× of final conc. (1000 ng/mL), final concentration is 100 ng/mL. […] 240 μL of blood was transferred to each of the wells of a v-bottom 96 well plate. 30 μL of compound was transferred from intermediate dilution plate, and incubated for 15 min. 30 μL from stimulants was then transferred to blood and mixed thoroughly. Plate was covered with breathable membrane and incubated at 37° C. for overnight (18 h). […] Plasma was diluted with RPMI in 1:1 ratio and proteins were precipitated out with two volume of Acetonitrile. The plates were centrifuged at 4000×G for 60 min. 20 μL of supernatant was carefully transferred to a 384 well plate contain 40 μL of 0.1% formic acid in water and analyzed by LC/MS/MS. LC/MS/MS analyses were performed using Thermo Fisher's LX4-TSQ Quantum Ultra system. This system consists of four Agilent binary high-performance liquid chromatography (HPLC) pumps and a TSQ Quantum Ultra triple quadrupole MS/MS instrument. For each sample, 5 μL were injected onto an Atlantis T3 column (2.1 mm×150 mm, 3 μm particle size) from Waters. The mobile phase gradient pumped at 0.8 mL/min was used to elute the analytes from the column at 25° C. The elution started at 0% B increasing linearly to 25% B at 6.5 min, holding at 25% for 1 min, re-equilibrating to 10 min. Mobile phase A consisted of 0.1% formic acid in water. Mobile phase B consisted of 0.1% of formic acid in acetonitrile. Data was acquired in positive mode using a HESI interface. The operational parameters for the TSQ Quantum Ultra instrument were a spray voltage of 4000 V, capillary temperature of 380° C., vaporizer temperature 400° C., shealth gas 60 arbitrary units, Aux gas 20 arbitrary units, tube lens 85 and collision gas 1.2 mTorr. SRM chromatograms of kynurenine (Q1: 209.2>Q3:94.0) and internal standard (Q1: 215.3>Q3:98.2) were collected for 90 sec. The peak area was integrated by Xcalibur Quan software. […] Compounds were titrated and IC50's were calculated by 4 parameter sigmoidal curve fitting formula.

Sequence of IDO1 (P14902 whole entry): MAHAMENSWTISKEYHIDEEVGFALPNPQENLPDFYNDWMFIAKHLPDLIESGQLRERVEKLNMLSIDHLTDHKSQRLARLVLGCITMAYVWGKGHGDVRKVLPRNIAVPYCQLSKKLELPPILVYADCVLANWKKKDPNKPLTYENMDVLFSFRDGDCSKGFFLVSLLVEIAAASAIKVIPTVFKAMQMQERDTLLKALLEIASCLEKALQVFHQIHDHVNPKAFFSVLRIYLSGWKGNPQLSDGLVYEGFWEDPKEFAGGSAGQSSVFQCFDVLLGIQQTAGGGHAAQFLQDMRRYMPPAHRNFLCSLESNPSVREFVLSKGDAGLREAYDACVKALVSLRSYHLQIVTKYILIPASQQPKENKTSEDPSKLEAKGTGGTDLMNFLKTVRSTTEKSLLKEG

Row | SMILES | IC50
1 | Cc1cccc(N2CCC(C(F)Cn3nc(C(=O)N4C[C@@H](C)O[C@@H](C)C4)c4c3CCC4)CC2)c1C (single isomer, unassigned) [Example 48] | 964 nM
2 | Cc1c(F)ccc(C2CCC(CCn3nc(C(=O)N4CCC(F)(CO)CC4)c4c3CCC4)CC2)c1C (single isomer, unassigned) [Example 52, (1-(2-(4-(4-fluoro-2,3-dimethylphenyl)cyclohexyl)ethyl)-1,4,5,6-tetrahydrocyclopenta[c]pyrazol-3-yl)(4-fluoro-4-(hydroxymethyl)piperidin-1-yl)methanone] | 448 nM
3 | Cc1cccc(C2CCC(CCn3nc(C(=O)N4CCC(O)CC4)c4c3CCC4)CC2)c1C (single isomer, unassigned) [Example 96, (1-(2-(4-(2,3-dimethylphenyl)cyclohexyl)ethyl)-1,4,5,6-tetrahydrocyclopenta[c]pyrazol-3-yl)(4-hydroxypiperidin-1-yl)methanone] | 328 nM
4 | Cc1cccc(N2CCC(CCn3nc(C(=O)N4CCC(O)CC4)c4c3CCC4)CC2)c1C [Example 1, (1-(2-(1-(2,3-dimethylphenyl)piperidin-4-yl)ethyl)-1,4,5,6-tetrahydrocyclopenta[c]pyrazol-3-yl)(4-hydroxypiperidin-1-yl)methanone] | 341 nM
5 | Cc1c(F)ccc(N2CCC(CCn3nc(C(=O)N4CCC(F)(CO)CC4)c4c3CCC4)CC2)c1C [Example 8, (1-(2-(1-(4-fluoro-2,3-dimethylphenyl)piperidin-4-yl)ethyl)-1,4,5,6-tetrahydrocyclopenta[c]pyrazol-3-yl)(4-fluoro-4-(hydroxymethyl)piperidin-1-yl)methanone] | 251 nM
6 | Cc1c(F)ccc(N2CCC(CCn3nc(C(=O)N4CCN(C(=O)CO)CC4)c4c3CCC4)CC2)c1C [Example 11, 1-[4-[1-[2-[1-(4-fluoro-2,3-dimethyl-phenyl)piperidin-1-ium-4-yl]ethyl]-5,6-dihydro-4H-cyclopenta[c]pyrazole-3-carbonyl]piperazin-1-yl]-2-hydroxy-ethanone] | 800 nM
7 | CC(=O)NC1CCN(C(=O)c2nn(CCC3CCN(c4ccc(F)c(F)c4C)CC3)c3c2CCCC3)CC1 [Example 18, N-[1-[1-[2-[1-(3,4-difluoro-2-methyl-phenyl)-4-piperidyl]ethyl]-4,5,6,7-tetrahydroindazole-3-carbonyl]-4-piperidyl]acetamide] | 437 nM
8 | CC(=O)NC1CCN(C(=O)c2nn(CCC3CCN(c4cccc(Cl)c4C)CC3)c3c2CCCC3)CC1 [Example 20, N-[1-[1-[2-[1-(3-chloro-2-methyl-phenyl)-4-piperidyl]ethyl]-4,5,6,7-tetrahydroindazole-3-carbonyl]-4-piperidyl]acetamide] | 286 nM
9 | CC(=O)NC1CCN(C(=O)c2nn(CCC3CCN(c4nccc(C(F)(F)F)c4F)CC3)c3c2CCCC3)CC1 [Example 35, N-[1-[1-[2-[1-[3-fluoro-4-(trifluoromethyl)-2-pyridyl]-4-piperidyl]ethyl]-4,5,6,7-tetrahydroindazole-3-carbonyl]-4-piperidyl]acetamide] | 935 nM
10 | Cc1c(Cl)cccc1O[C@H]1CC[C@@H](CCn2nc(C(=O)N3C[C@@H](C)O[C@@H](C)C3)c3c2CCC3)CC1 [Example 53, (1-(2-((1s,4S)-4-(3-chloro-2-methylphenoxy)cyclohexyl)ethyl)-1,4,5,6-tetrahydrocyclopenta[c]pyrazol-3-yl)((2R,6S)-2,6-dimethylmorpholino)methanone] | 822 nM
11 | Cc1ccc(Cl)c(O[C@H]2CC[C@@H](CCn3nc(C(=O)N4CCN(C(=O)CO)CC4)c4c3CCC4)CC2)c1 [Example 57, 1-(4-(1-(2-((1s,4s)-4-(2-chloro-5-methylphenoxy)cyclohexyl)ethyl)-1,4,5,6-tetrahydrocyclopenta[c]pyrazole-3-carbonyl)piperazin-1-yl)-2-hydroxyethan-1-one] | 517 nM
12 | Cc1ccc(Cl)c(O[C@H]2CC[C@@H](CCn3nc(C(=O)N4CCC(F)(CO)CC4)c4c3CCC4)CC2)c1 [Example 58, (1-(2-((1s,4s)-4-(2-chloro-5-methylphenoxy)cyclohexyl)ethyl)-1,4,5,6-tetrahydrocyclopenta[c]pyrazol-3-yl)(4-fluoro-4-(hydroxymethyl)piperidin-1-yl)methanone] | 538 nM
13 | CC(=O)NC1CCN(C(=O)c2nn(CC[C@H]3CC[C@@H](Oc4cnccc4C)CC3)c3c2CCC3)CC1 [Example 64, N-(1-(1-(2-((1s,4s)-4-((4-methylpyridin-3-yl)oxy)cyclohexyl)ethyl)-1,4,5,6-tetrahydrocyclopenta[c]pyrazole-3-carbonyl)piperidin-4-yl)acetamide] | 215 nM
14 | CC(=O)NC1CCN(C(=O)c2nn(CC[C@H]3CC[C@@H](Oc4cnc(C)nc4C)CC3)c3c2CCC3)CC1 [Example 68, N-(1-(1-(2-((1s,4s)-4-((2,4-dimethylpyrimidin-5-yl)oxy)cyclohexyl)ethyl)-1,4,5,6-tetrahydrocyclopenta[c]pyrazole-3-carbonyl)piperidin-4-yl)acetamide] | 517 nM

Second part, the compound after the results:

Row | IC50 | SMILES
15 | 177 nM | Cc1c(F)ccc(C2CCC(CCn3nc(C(=O)N4CCN(C(=O)CO)CC4)c4c3CCC4)CC2)c1C (single isomer, unassigned) [Example 49, 1-(4-(1-(2-(4-(4-fluoro-2,3-dimethylphenyl)cyclohexyl)ethyl)-1,4,5,6-tetrahydrocyclopenta[c]pyrazole-3-carbonyl)piperazin-1-yl)-2-hydroxyethan-1-one]
16 | 166 nM | Cc1cccc(C2CCC(CCn3nc(C(=O)N4CCC(O)CC4)c4c3CCC4)CC2)c1C (single isomer, unassigned) [Example 95, (1-(2-(4-(2,3-dimethylphenyl)cyclohexyl)ethyl)-1,4,5,6-tetrahydrocyclopenta[c]pyrazol-3-yl)(4-hydroxypiperidin-1-yl)methanone]
17 | 30.6 nM | CC(=O)NC1CCN(C(=O)c2nn(CC[C@H]3CC[C@@H](Oc4ccccc4C)CC3)c3c2CCC3)CC1 [Example 61, N-(1-(1-(2-((1s,4s)-4-(2-methylphenoxy)cyclohexyl)ethyl)-1,4,5,6-tetrahydrocyclopenta[c]pyrazole-3-carbonyl)piperidin-4-yl)acetamide]
18 | 130 nM | CC(=O)NC1CCN(C(=O)c2nn(CC[C@H]3CC[C@@H](Oc4ccccc4C(F)(F)F)CC3)c3c2CCC3)CC1 [Example 65, N-(1-(1-(2-((1s,4s)-4-(2-(trifluoromethyl)phenoxy)cyclohexyl)ethyl)-1,4,5,6-tetrahydrocyclopenta[c]pyrazole-3-carbonyl)piperidin-4-yl)acetamide]
19 | 153 nM | CC(=O)NC1CCN(C(=O)c2nn(CC[C@H]3CC[C@@H](Oc4nccc(C)c4C#N)CC3)c3c2CCC3)CC1 [Example 66, N-(1-(1-(2-((1s,4s)-4-((3-cyano-4-methylpyridin-2-yl)oxy)cyclohexyl)ethyl)-1,4,5,6-tetrahydrocyclopenta[c]pyrazole-3-carbonyl)piperidin-4-yl)acetamide]
20 | 209 nM | CC(=O)NC1CCN(C(=O)c2nn(CC[C@H]3CC[C@@H](Oc4ccc(C)nc4C)CC3)c3c2CCC3)CC1 [Example 67, N-(1-(1-(2-((1s,4s)-4-((2,6-dimethylpyridin-3-yl)oxy)cyclohexyl)ethyl)-1,4,5,6-tetrahydrocyclopenta[c]pyrazole-3-carbonyl)piperidin-4-yl)acetamide]
21 | 161 nM | CC(=O)NC1CCN(C(=O)c2nn(CC[C@H]3CC[C@@H](Oc4ccccc4Cl)CC3)c3c2CCC3)CC1 [Example 70, N-[1-[1-[2-[4-(2-chlorophenoxy)cyclohexyl]ethyl]-5,6-dihydro-4H-cyclopenta[c]pyrazole-3-carbonyl]-4-piperidyl]acetamide]
22 | 178 nM | CC(=O)NC1CCN(C(=O)c2nn(CC[C@H]3CC[C@@H](Oc4ncccc4C)CC3)cc2C2CC2)CC1 [Example 74, N-(1-(4-cyclopropyl-1-(2-((1s,4s)-4-((3-methylpyridin-2-yl)oxy)cyclohexyl)ethyl)-1H-pyrazole-3-carbonyl)piperidin-4-yl)acetamide]
23 | 136 nM | CC(=O)NC1CCN(C(=O)c2nn(C[C@@H]3C[C@@H](Oc4ccc(Cl)cn4)CCO3)c3c2CC(F)(F)CC3)CC1 [Example 77, 6-{3-[4-(acetylamino)piperidine-1-carbonyl]-5,5-difluoro-4,5,6,7-tetrahydro-1H-indazol-1-yl}-1,5-anhydro-3-O-(5-chloropyridin-2-yl)-2,4,6-trideoxy-D-erythro-hexitol]
